# Experiments:
# [1] = biological target: T1, AHR (Homo sapiens, UniProt P35869); assay: In vitro assay 1: antagonism in human cell line (transactivation assay, kynurenic acid prestimulated); conditions: Assay 1: AHR-luc Hum Antagonism IC50 [M], 150 μM kynurenic acid, 20 hours, firefly luciferase
# T1 sequence (P35869 11-848): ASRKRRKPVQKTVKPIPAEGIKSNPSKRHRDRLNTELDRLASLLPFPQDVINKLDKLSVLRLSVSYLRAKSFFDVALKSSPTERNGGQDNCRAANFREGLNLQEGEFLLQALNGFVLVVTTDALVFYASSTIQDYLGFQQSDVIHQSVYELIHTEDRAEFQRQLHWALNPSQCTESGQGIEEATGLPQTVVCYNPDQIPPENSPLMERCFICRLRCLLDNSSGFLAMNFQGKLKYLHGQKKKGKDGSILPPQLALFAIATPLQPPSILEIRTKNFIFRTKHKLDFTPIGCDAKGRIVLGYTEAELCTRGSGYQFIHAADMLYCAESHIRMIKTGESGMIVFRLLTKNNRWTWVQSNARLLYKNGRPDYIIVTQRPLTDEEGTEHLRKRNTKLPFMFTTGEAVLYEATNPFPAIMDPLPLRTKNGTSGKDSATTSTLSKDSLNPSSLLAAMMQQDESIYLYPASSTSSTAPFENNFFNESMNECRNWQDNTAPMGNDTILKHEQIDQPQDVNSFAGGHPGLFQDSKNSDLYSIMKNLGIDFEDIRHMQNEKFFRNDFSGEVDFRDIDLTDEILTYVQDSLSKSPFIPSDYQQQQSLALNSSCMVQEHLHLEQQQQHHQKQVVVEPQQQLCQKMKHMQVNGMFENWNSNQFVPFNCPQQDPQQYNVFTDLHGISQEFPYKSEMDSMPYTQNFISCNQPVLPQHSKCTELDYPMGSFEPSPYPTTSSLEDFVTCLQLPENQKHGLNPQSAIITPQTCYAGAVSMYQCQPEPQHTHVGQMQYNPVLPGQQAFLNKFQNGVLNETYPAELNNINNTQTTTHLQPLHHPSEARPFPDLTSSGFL
# [2] = tested on: AHR-regulated gene CYP1A1; assay: In vitro assay 3: AHR-regulated CYP1A1 expression in human cell line (U937, qPCR); conditions: Homo sapiens, U-937, 6 h, read-out: Assay 3: Hum CYP1A1 Antagonism IC50 [M], U937 cells, 200 μM KA, 6 hours, qPCR
# Experimental: In Vitro Assay 3: AHR-Regulated CYP1A1 Expression in Human Cell Line
# To assess the AHR inhibitory activity of the substances described in this application, the ability thereof to antagonise ligand-induced AHR gene regulation in a dose-dependent manner was quantified. For this purpose, quantitative PCR analysis was used to determine expression of the AHR-regulated gene CYP1A1 in a human monocytic U937 cell line upon stimulation with 200 μM KA in the presence and absence of AHR inhibitor. U937 cells were sown at a concentration of 2×10^5 cells/well in 100 ul of growth medium (RPMI 1640, 20% FCS) in 96-well microtitre plates. CYP1A1 expression was induced with 200 μM KA (positive control) in the presence or absence of the substances for 6 hours. Human U937 cells were typically incubated with eight different concentrations of the substances (1 nM, 3 nM, 10 nM, 30 nM, 100 nM, 300 nM, 1 μM and 3 μM) and analyzed in duplicate on the same microtitre plate. After stimulation, cells were lysed with Nucleic Acid Lysis Solution (#4305895, Applied Biosystems) and RNA was isolated using the 6100 Nucleic Acid Preparation Station (Applied Biosystems) and reverse-transcribed to cDNA using SuperScript VILO cDNA synthesis kit (#11754-250, Invitrogen). Unstimulated cells were used as the negative control. Taqman probes for human CYP1A1 (Hs01054797_g1) and human HPRT (Hs02800695_m1) were used to analyze fold expression of CYP1A1 of HPRT. Quantitation was performed on a Taqman SDS7900HT.
# [3] = biological target: T1, AHR; assay: In vitro assay 2: agonism in human cell line (transactivation assay); conditions: Assay 2: AHR-luc Hum Agonism IC50 [M], no kynurenic acid, 20 hours, firefly luciferase
SMILES,IC50 [1] [M],IC50 [2] [M],IC50 [3] [M]
"CC(O)C(C)NC(=O)c1cc(-c2ccc(Cl)cc2)nn(-c2cccc(F)c2)c1=O (stereo not drawn) [Example 131, 6-(4-Chlorophenyl)-2-(3-fluorophenyl)-N-(3-hydroxybutan-2-yl]-3-oxo-2,3-dihydropyridazine-4-carboxamide]",4.69e-08,8.26e-08,> 2e-05
"O=C(N[C@@H]1CCCC[C@H]1O)c1cc(-c2ccc(Cl)cc2)nn(-c2cccc(F)c2)c1=O [Example 164, 6-(4-Chlorophenyl)-2-(3-fluorophenyl)-N-[(1R,2R)-2-hydroxycyclohexyl]-3-oxo-2,3-dihydropyridazine-4-carboxamide]",5.96e-07,2e-06,> 2e-05
"O=C(N[C@H]1COC[C@H]1O)c1cc(-c2ccc(Cl)cc2)nn(-c2cccc(F)c2)c1=O [Example 166, 6-(4-Chlorophenyl)-2-(3-fluorophenyl)-N-[(3S,4S)-4-hydroxytetrahydrofuran-3-yl]-3-oxo-2,3-dihydropyridazine-4-carboxamide]",4.05e-08,4.47e-08,> 2e-05
"O=C(N[C@H]1COC[C@@H]1O)c1cc(-c2ccc(Cl)cc2)nn(-c2cccc(F)c2)c1=O [Example 167, 6-(4-Chlorophenyl)-2-(3-fluorophenyl)-N-[(3S,4R)-4-hydroxytetrahydrofuran-3-yl]-3-oxo-2,3-dihydropyridazine-4-carboxamide]",1.63e-07,2.03e-07,> 2e-05
"CC(C)[C@@H](CO)NC(=O)c1cc(-c2ccc(OC(F)(F)F)cc2)nn(-c2cccc(F)c2)c1=O [Example 168, 2-(3-Fluorophenyl)-N-[(2S)-1-hydroxy-3-methylbutan-2-yl]-3-oxo-6-[4-(trifluoromethoxy)phenyl]-2,3-dihydropyridazine-4-carboxamide]",6.92e-09,2.16e-08,> 2e-05
"O=C(NC(CO)C(F)(F)F)c1cc(-c2ccc(OC(F)(F)F)cc2)nn(-c2cccc(F)c2)c1=O (stereo not drawn) [Example 169, 2-(3-Fluorophenyl)-3-oxo-N-(1,1,1-trifluoro-3-hydroxypropan-2-yl)-6-[4-(trifluoromethoxy)phenyl]-2,3-dihydropyridazine-4-carboxamide]",1.11e-08,1.35e-08,> 2e-05
"CC[C@@H](CO)NC(=O)c1cc(-c2ccc(OC(F)(F)F)cc2)nn(-c2cccc(F)c2)c1=O [Example 172, 2-(3-Fluorophenyl)-N-[(2S)-1-hydroxybutan-2-yl]-3-oxo-6-[4-(trifluoromethoxy)phenyl]-2,3-dihydropyridazine-4-carboxamide]",2.63e-08,2.68e-08,> 2e-05
"C[C@@H](CO)NC(=O)c1cc(-c2ccc(OC(F)(F)F)cc2)nn(-c2cccc(F)c2)c1=O [Example 173, 2-(3-Fluorophenyl)-N-[(2S)-1-hydroxypropan-2-yl]-3-oxo-6-[4-(trifluoromethoxy)phenyl]-2,3-dihydropyridazine-4-carboxamide]",3.31e-08,9.1e-08,> 2e-05
"O=C(NCC(O)C(F)(F)F)c1cc(-c2ccc(OC(F)(F)F)cc2)nn(-c2cccc(F)c2)c1=O (stereo not drawn) [Example 182, 2-(3-Fluorophenyl)-3-oxo-N-(3,3,3-trifluoro-2-hydroxypropyl)-6-[4-(trifluoromethoxy)phenyl]-2,3-dihydropyridazine-4-carboxamide]",3.41e-08,5.9e-08,> 2e-05
"C[C@H](O)[C@H](C)NC(=O)c1cc(-c2ccc(OC(F)(F)F)cc2)nn(-c2cccc(F)c2)c1=O [Example 185, 2-(3-Fluorophenyl)-N-[(2S,3S)-3-hydroxybutan-2-yl]-3-oxo-6-[4-(trifluoromethoxy)phenyl]-2,3-dihydropyridazine-4-carboxamide]",3.9e-08,8.06e-08,> 2e-05
"CC(C)(CO)NC(=O)c1cc(-c2ccc(Cl)cc2)nn(-c2cccc(F)c2)c1=O [Example 186, 6-(4-Chlorophenyl)-2-(3-fluorophenyl)-N-(1-hydroxy-2-methylpropan-2-yl)-3-oxo-2,3-dihydropyridazine-4-carboxamide]",1.88e-07,1.34e-07,> 2e-05

# — patent publication US11040035B2, “3-oxo-2,6-diphenyl-2,3-dihydropyridazine-4-carboxamides” (BAYER PHARMA AKTIENGESELLSCHAFT, priority 2016, dated 2021)
